The record followed here is patent US20240415920A1, “PEPTIDE HAVING ACTIVITY OF PREVENTING HAIR LOSS OR PROMOTING HAIR GROWTH, AND USE THEREOF” (CAREGEN CO., LTD., priority 2021, published 2024).

What all share (assay type): cell-based, human
For one assay, the system named is DKK-1 protein. Description: Western blotting of DKK-1 protein in DHT-treated HHFDPC. The settings on record: HHFDPC with DHT 100 nM, peptide 10 nM, 1 μM, 24 hours, FIG. 5. Here is the method: DKK-1 protein (dickkopf-related protein 1) is a hair loss-related protein known to be highly expressed in individuals with hair loss, especially male pattern hair loss, and its expression is known to be promoted by hormones such as DHT (Dihydrotestosterone). Accordingly, the expression of DKK-1 protein was induced by treating HHFDPC cells with DHT together with the peptide according to the Preparation Example of the present invention, and then the expression level of DKK-1 was measured through Western blotting to determine whether there was an effect of suppressing the expression of DKK-1 protein.
Specifically, HHFDPC as in [Experiment Example 1-1] was seeded in a 6-well culture plate at 4×10^5 cells/well and then cultured in MSC complete medium (mesenchymal stem cell complete media) for 24 hours. Next, the medium was replaced with serum free MSC complete medium and cultured again for 24 hours. In addition, the HHFDPC was treated with the peptide of SEQ ID NO: 1 prepared in Preparation Example at concentrations of 10 nM, 100 nM, and 1 μM, respectively, and at this time, DHT, an expression inducer of DKK-1 protein, was simultaneously treated at a concentration of 100 nM and then cultured at 37° C. for 24 hours. […] After washing again with 0.1% PBS-T (0.1% Tween-20 in PBS) three times for 15 minutes each, DKK-1 protein was detected by treatment with ECL solution (GE Healthcare, USA).
(A western blot detects proteins with antibodies after separation by electrophoresis.)

For the next assay, the system named is Keratin 14. Description: RT-PCR of Keratin 14 expression in HHORSC. The settings on record: peptide 10 nM, 100 nM, 1 μM, 72 hours, FIG. 6. As to the method: (§1) Using the peptide of the present invention consisting of the amino acid sequence of SEQ ID NO: 1 prepared according to Preparation Example above, it was confirmed whether it promotes the activity of outer root sheath cells, a type of cell that forms hair follicles.
(§2) Specifically, HHORSC (human hair outer root sheath cell, Sciencell, USA) was seeded in a 6-well culture plate at 4×10^5 cells/well and then cultured in MSC complete medium (mesenchymal stem cell complete media) for 24 hours. Next, the medium was replaced with serum free MSC complete medium and cultured again for 24 hours. Then, the HHORSC was treated with the peptide of Preparation Example consisting of amino acid sequence of SEQ ID NO: 1 at concentrations of 10 nM, 100 nM, and 1 μM, respectively, and cultured at 37° C. for 72 hours. […] Then, CDNA was synthesized using a cDNA synthesis kit (enzynomics, Korea) by quantification using nano drop, and PCR was performed using primers for Ha3-II, Keratin 5, Keratin 14, and Keratin 19 (the base sequences of each primer are shown in Table 3 below) and PCR premix (enzynomics, Korea). Electrophoresis was performed on a 1.5% agarose gel, and the mRNAs of Ha3-II, Keratin 5, Keratin 14, and Keratin 19 were detected using a band analysis system (Bio-Rad gel image system).

A further assay concerns Keratin 19. The experiment in a line: RT-PCR of Keratin 19 expression in HHORSC. The conditions noted are these: peptide 10 nM, 100 nM, 1 μM, 72 hours, FIG. 6. As to the method:
as §1, §2

As to “GCGLFVAAC [peptide of the present invention]”, the “concentration dependence of the DKK-1 expression level” value with DKK-1 protein is reported as “decreased depending on the concentration”. Also, the “amount of DKK-1 protein compared to the negative control group (DHT only)” value in the assay with DKK-1 protein (Western blotting) is given as “found to be reduced”. Further, the “Keratin 14 mRNA amount compared to the control group without treatment” value with Keratin 14 is listed as “the amount of mRNA increased further”. For the same sequence, the “Keratin 19 mRNA amount compared to the control group without treatment” value with Keratin 19 is given as “the amount of mRNA increased further”.
